Read-outs that look alike come from different tables or passages of the source.
Legend:
MMP-2 = target: T1, MMP-2 (Homo sapiens, UniProt P08253); assay: De novo T-DEL selection against MMP-2, NGS decoding; assay type: binding; details: de novo T-DEL selection against MMP-2
T1 construct: purchased Sino Biological 10082-HNAH
T1 sequence (P08253 110-660): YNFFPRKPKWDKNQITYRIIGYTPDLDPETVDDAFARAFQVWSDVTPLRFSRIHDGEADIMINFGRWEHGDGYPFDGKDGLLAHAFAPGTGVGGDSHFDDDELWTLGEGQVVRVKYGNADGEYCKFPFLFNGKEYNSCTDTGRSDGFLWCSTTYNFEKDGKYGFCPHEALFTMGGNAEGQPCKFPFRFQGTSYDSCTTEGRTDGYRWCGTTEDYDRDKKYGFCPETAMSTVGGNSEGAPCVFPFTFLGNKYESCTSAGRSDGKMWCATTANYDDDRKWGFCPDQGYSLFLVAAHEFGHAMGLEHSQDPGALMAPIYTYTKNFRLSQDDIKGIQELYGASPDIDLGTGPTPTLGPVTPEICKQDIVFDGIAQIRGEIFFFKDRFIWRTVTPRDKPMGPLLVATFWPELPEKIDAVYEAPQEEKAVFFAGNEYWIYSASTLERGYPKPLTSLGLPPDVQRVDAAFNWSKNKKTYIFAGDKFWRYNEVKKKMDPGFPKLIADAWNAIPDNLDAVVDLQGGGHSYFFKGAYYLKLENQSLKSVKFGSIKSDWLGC
Excerpt: Matrix metalloproteinases (MMPs) are zinc-dependent endopeptidases capable of degrading and remodeling extracellular matrix components[46],[47]. They are attractive therapeutic targets as high expression levels were detected in various diseases, such as inflammatory diseases, and at different stages of cancers, including metastasis, invasion, and angiogenesis[47]–[53]. As shown in Supplementary Fig. 3c, we performed selections against the two gelatinases (human MMP-2 and human MMP-9) to identify binding fragments for later design and synthesis of small molecule inhibitors. After selection, the three sub-libraries were decoded, and the enrichment was calculated by dividing the post-selection fraction (count/total counts) by the pre-selection fraction (Fig. 4a and Supplementary Fig. 13).
4 µg of MMP-2/MMP-9 was dissolved in 100 µl of selection buffer containing 25 mM Tris-base, 10 mM CaCl2, 150 mM NaCl, 0.05% Tween 20, pH 7.5. 10 µl of 4-Aminophenylmercuric acetate (APMA) (100 mM) solution was added to the protein solution and incubated at 37 °C for 1 h. After activation, the solution was added on top of 40 µl pre-washed Ni-NTA resin and incubated for 30 min on a rotary shaker. The supernatant was discarded, and the resin was washed three times with the selection buffer.
For each independent selection, three sub-libraries were mixed in the selection buffer with a final concentration of 40 nM of each sub-library in 100 µl. The mixture was heat denatured at 90 °C for 1 min and slowly cooled down to allow the formation of the trio-pharmacophore library. The dynamic dual-pharmacophore DEL was provided by DyNAbind GmbH (Merck, DYNA001).
The assembled library was incubated with the protein-bound solid support for 2 h at RT on a rotary shaker. In parallel, selection on bare solid support served as the negative control to exclude promiscuous binders on the resin. After panning, the supernatant was discarded, and the resin was washed three times with 1 ml selection buffer. Finally, 100 µl of 50 mM Tris buffer, pH 7.4 was added to resuspend the resin and the resin was incubated at 95 °C for 5 min to denature the protein, release, and collect the bound library members.
The eluted library members were subjected to sample preparation for NGS. NGS preparation was achieved by two-step PCR. First, the individual selection was indexed using primers containing unique sequences corresponding to each selection. The amplified product was purified from 2% agarose gel. Second, the purified DNA from all selections were pooled in equal amount and subjected to the 2nd PCR step to attach sequences compatible with the NGS flow cell and the sequencing primers. NGS was performed by Novogene UK with Novaseq 6000. Raw data files (fastq files) obtained were decoded using a custom python script and excel. The sequence reads corresponding to each sample was retrieved by searching for the correct index unique to each selection. Then, the code region was extracted from each sequence and assigned to the corresponding identity. The count of each code in each selection sample was obtained by looping through the total reads and counting the occurrence of each code. The enrichment fold of each compound was calculated by first, dividing the count by the total count to get the abundance, second, the abundance after the selection was divided by the abundance of pre-selection to reflect the distribution change of the compound. Next, the enrichment fold was plotted against the count for each member of the library to give the scatter plots as in Fig. 4.

MMP-9 = target: T2, MMP-9 (Homo sapiens, UniProt P14780); assay: MMP-9 inhibition assay (fluorogenic peptide substrate); assay type: biochemical
T2 construct: purchased Sino Biological 10327-HNAH
T2 sequence (P14780 107-707 limits assumed): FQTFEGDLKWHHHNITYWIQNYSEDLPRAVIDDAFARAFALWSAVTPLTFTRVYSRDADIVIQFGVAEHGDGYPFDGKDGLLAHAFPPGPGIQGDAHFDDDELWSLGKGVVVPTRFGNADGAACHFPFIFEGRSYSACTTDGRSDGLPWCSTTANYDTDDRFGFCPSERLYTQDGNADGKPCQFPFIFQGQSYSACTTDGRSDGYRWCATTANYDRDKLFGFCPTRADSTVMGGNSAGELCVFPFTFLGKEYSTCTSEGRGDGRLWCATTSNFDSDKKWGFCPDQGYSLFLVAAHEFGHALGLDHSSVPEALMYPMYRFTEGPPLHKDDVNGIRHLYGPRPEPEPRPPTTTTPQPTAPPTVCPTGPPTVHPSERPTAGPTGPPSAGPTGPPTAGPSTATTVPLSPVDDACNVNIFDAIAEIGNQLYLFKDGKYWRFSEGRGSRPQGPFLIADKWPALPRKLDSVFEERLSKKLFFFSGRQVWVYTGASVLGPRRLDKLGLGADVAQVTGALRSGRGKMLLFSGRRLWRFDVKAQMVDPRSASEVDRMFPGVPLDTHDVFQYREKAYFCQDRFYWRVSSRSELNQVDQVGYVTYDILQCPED
Summary of the method: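 Human proMMP-2 and proMMP-9 were activated with 1 mM APMA for 2 h at 37 °C, then used at 6.5 nM (MMP-2) or 10 nM (MMP-9) final in Tris/NaCl/CaCl2/Brij 35 buffer, pH 7.5. After 30 min preincubation with compound at RT, 25 μM FRET peptide substrate was added and fluorescence (ex 280/em 360 nm) followed for 30 min. IC50 came from logistic fits of Vmax.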

**Q.** With NCc1c[nH]nn1 [Compound 787] as the compound, how does the “MMP2 SL-A Count” value (MMP-2; NGS sequence count of sub-library SL-A building block) read?
**A.** Its value is 589.

**Q.** What about the “MMP2 SL-C Count” value (MMP-2; NGS sequence count of sub-library SL-C building block) of the same compound?
**A.** The value was 2395.

**Q.** And the “MMP2 SL-A Enrichment Fold” value (MMP-2; sub-library SL-A building block)?
**A.** The value was 0.846.

**Q.** What about the “MMP2 SL-C Enrichment Fold” value (MMP-2; sub-library SL-C building block) of the same compound?
**A.** The value was 2.519.

**Q.** And the remaining activity at 0.078016 µM (MMP-9; Figure 5b, fragment concentration 0.078016 µM, read-out: Normalized activity (Mean))?
**A.** Its remaining activity at 0.078016 µM is 99.6%.

**Q.** What about the remaining activity at 0.39008 µM (MMP-9; Figure 5b, fragment concentration 0.39008 µM, read-out: Normalized activity (Mean)) of the same compound?
**A.** Its remaining activity at 0.39008 µM is 103%.

**Q.** What about the remaining activity at 1.9504 µM (MMP-9; Figure 5b, fragment concentration 1.9504 µM, read-out: Normalized activity (Mean)) of the same compound?
**A.** Its remaining activity at 1.9504 µM is 88%.

**Q.** What about the remaining activity at 9.752 µM (MMP-9; Figure 5b, fragment concentration 9.752 µM, read-out: Normalized activity (Mean)) of the same compound?
**A.** The remaining activity at 9.752 µM was 89.2%.

**Q.** And the remaining activity at 48.76 µM (MMP-9; Figure 5b, fragment concentration 48.76 µM, read-out: Normalized activity (Mean))?
**A.** The remaining activity at 48.76 µM was 88.6%.

**Q.** And the remaining activity at 243.8 µM (MMP-9; Figure 5b, fragment concentration 243.8 µM, read-out: Normalized activity (Mean))?
**A.** The remaining activity at 243.8 µM was 78.5%.

**Q.** And the remaining activity at 1219 µM (MMP-9; Figure 5b, fragment concentration 1219 µM, read-out: Normalized activity (Mean))?
**A.** The remaining activity at 1219 µM was 32.5%.

**Q.** What about the remaining activity at 0.08 µM (MMP-9; MMP-9, concentration 0.08 µM, read-out: Mean (MMP-9, Supplementary fig 16)) of the same compound?
**A.** Its remaining activity at 0.08 µM is 99.6%.

**Q.** And the remaining activity at 0.39 µM (MMP-9; MMP-9, concentration 0.39 µM, read-out: Mean (MMP-9, Supplementary fig 16))?
**A.** Its remaining activity at 0.39 µM is 103%.

**Q.** And the remaining activity at 1.95 µM (MMP-9; MMP-9, concentration 1.95 µM, read-out: Mean (MMP-9, Supplementary fig 16))?
**A.** Its remaining activity at 1.95 µM is 88%.

**Q.** What about the remaining activity at 9.75 µM (MMP-9; MMP-9, concentration 9.75 µM, read-out: Mean (MMP-9, Supplementary fig 16)) of the same compound?
**A.** The remaining activity at 9.75 µM was 89.2%.

**Q.** What about the remaining activity at 48.76 µM (MMP-9; MMP-9, concentration 48.76 µM, read-out: Mean (MMP-9, Supplementary fig 16)) of the same compound?
**A.** Its remaining activity at 48.76 µM is 88.6%.

**Q.** And the remaining activity at 243.8 µM (MMP-9; MMP-9, concentration 243.80 µM, read-out: Mean (MMP-9, Supplementary fig 16))?
**A.** The remaining activity at 243.8 µM was 78.5%.

**Q.** And the remaining activity at 1219 µM (MMP-9; MMP-9, concentration 1219.00 µM, read-out: Mean (MMP-9, Supplementary fig 16))?
**A.** Its remaining activity at 1219 µM is 32.5%.

**Q.** What about the remaining activity at 0.08 µM (MMP-9; MMP-9, concentration 0.08 µM, read-out: Mean (MMP-9 dose-response, Supplementary fig 15)) of the same compound?
**A.** The remaining activity at 0.08 µM was 99.6%.

**Q.** What about the remaining activity at 0.08 µM (MMP-9; MMP-9, concentration 0.08 µM, read-out: Mean (dose-response, Supplementary fig 17)) of the same compound?
**A.** The remaining activity at 0.08 µM was 99.6%.

**Q.** And the remaining activity at 0.39 µM (MMP-9; MMP-9, concentration 0.39 µM, read-out: Mean (MMP-9 dose-response, Supplementary fig 15))?
**A.** Its remaining activity at 0.39 µM is 103%.

**Q.** And the remaining activity at 0.39 µM (MMP-9; MMP-9, concentration 0.39 µM, read-out: Mean (dose-response, Supplementary fig 17))?
**A.** Its remaining activity at 0.39 µM is 103%.

**Q.** And the remaining activity at 1.95 µM (MMP-9; MMP-9, concentration 1.95 µM, read-out: Mean (MMP-9 dose-response, Supplementary fig 15))?
**A.** The remaining activity at 1.95 µM was 88%.

**Q.** And the remaining activity at 1.95 µM (MMP-9; MMP-9, concentration 1.95 µM, read-out: Mean (dose-response, Supplementary fig 17))?
**A.** Its remaining activity at 1.95 µM is 88%.

**Q.** What about the remaining activity at 9.75 µM (MMP-9; MMP-9, concentration 9.75 µM, read-out: Mean (MMP-9 dose-response, Supplementary fig 15)) of the same compound?
**A.** The remaining activity at 9.75 µM was 89.2%.

**Q.** What about the remaining activity at 9.75 µM (MMP-9; MMP-9, concentration 9.75 µM, read-out: Mean (dose-response, Supplementary fig 17)) of the same compound?
**A.** The remaining activity at 9.75 µM was 89.2%.

**Q.** What about the remaining activity at 48.76 µM (MMP-9; MMP-9, concentration 48.76 µM, read-out: Mean (MMP-9 dose-response, Supplementary fig 15)) of the same compound?
**A.** The remaining activity at 48.76 µM was 88.6%.

**Q.** And the remaining activity at 48.76 µM (MMP-9; MMP-9, concentration 48.76 µM, read-out: Mean (dose-response, Supplementary fig 17))?
**A.** Its remaining activity at 48.76 µM is 88.6%.

**Q.** What about the remaining activity at 243.8 µM (MMP-9; MMP-9, concentration 243.80 µM, read-out: Mean (MMP-9 dose-response, Supplementary fig 15)) of the same compound?
**A.** The remaining activity at 243.8 µM was 78.5%.

**Q.** And the remaining activity at 243.8 µM (MMP-9; MMP-9, concentration 243.80 µM, read-out: Mean (dose-response, Supplementary fig 17))?
**A.** Its remaining activity at 243.8 µM is 78.5%.

**Q.** And the remaining activity at 1219 µM (MMP-9; MMP-9, concentration 1219.00 µM, read-out: Mean (MMP-9 dose-response, Supplementary fig 15))?
**A.** Its remaining activity at 1219 µM is 32.5%.

**Q.** What about the remaining activity at 1219 µM (MMP-9; MMP-9, concentration 1219.00 µM, read-out: Mean (dose-response, Supplementary fig 17)) of the same compound?
**A.** Its remaining activity at 1219 µM is 32.5%.

**Q.** What about the inhibitory effect (MMP-9; in words) of the same compound?
**A.** The inhibitory effect was “high µM”.

**Q.** What about the IC50 (MMP-9; mean ± SE, n.d: not detected, Fig. 5e prints no unit, µM, read-out: IC50) of the same compound?
**A.** Its IC50 is 784 ± 115 µM.

Reference: paper PMC10023787, “Trio-pharmacophore DNA-encoded chemical library for simultaneous selection of fragments and linkers” (Nature Communications, 2023)
